The values that follow come from ChEMBL document CHEMBL1147777, “Synthesis and antibacterial activity of substituted 1,2,3,4-tetrahydropyrazino [1,2-a] indoles” (2006).

One assay has as its system Escherichia coli. The assay is described as follows: MIC per disc against Escherichia coli by disc diffusion method. It counts as functional. For orientation: A growth-free zone around the sample is the usual read-out of agar diffusion tests.
In a further assay the test system is Staphylococcus aureus. In words: MIC per disc in Staphylococcus aureus by disc diffusion method. It counts as functional.
In another assay the test system is Pseudomonas aeruginosa. The assay is described as follows: MIC per disc against Pseudomonas aeruginosa by disc diffusion method. It counts as functional.
The subject of assay [1] is Streptomyces thermovulgaris. In words: MIC per disc against Streptomyces thermonitrificans by disc diffusion method. It is filed as functional.
For another assay, the system named is Salmonella typhi. In words: MIC per disc against Salmonella typhi by disc diffusion method. It is filed as functional, Salmonella enterica subsp. enterica serovar Typhi.
For the next assay, the system named is RBCs. The assay is described as follows: Cytotoxicity against erythrocytes by haemolytic assay at upto 500 ug/ml. It counts as functional, Erythrocyte.
[2] abbreviates: Salmonella enterica subsp. enterica serovar Typhi.

The source made the active and inactive calls. No cut-off for these calls is given here.

`Cc1c2n(c3ccccc13)CCNC2c1ccc(Br)cc1` (stereo not drawn): the MIC entry in the assay with Escherichia coli was “inactive”. In addition, the MIC in the assay on Staphylococcus aureus is 15 µg; in the assay with Pseudomonas aeruginosa it was 60 µg; in assay [1] it was 15 µg; against Salmonella typhi, 60 µg.

On to `Cc1c2n(c3ccccc13)CCNC2c1ccccn1` (stereo not drawn), for which the MIC entry (in the assay with Escherichia coli; with Pseudomonas aeruginosa; in assay [1]; in the assay with Salmonella typhi (setting [2])) was “inactive” each time. Also, the MIC in the assay with Staphylococcus aureus stood at 3.75 µg.

On to `C[C@H]1c2cccc(O)c2C(=O)C2=C(O)[C@]3(O)C(=O)C(C(N)=O)=C(O)[C@@H](N(C)C)[C@@H]3[C@@H](O)[C@@H]21.Cl` [DOXYCYCLINE HYDROCHLORIDE], for which the MIC against Escherichia coli worked out at 2 µg; against Staphylococcus aureus it was 1 µg; in the assay with Pseudomonas aeruginosa, 1 µg; in assay [1], 1 µg; with Salmonella typhi, 1 µg.

Take `COc1cccc(C2NCCn3c2c(C)c2ccccc23)c1` (stereo not drawn): the MIC came to 30 µg against Escherichia coli, 60 µg in the assay with Staphylococcus aureus, 15 µg in assay [1] and 30 µg against Salmonella typhi. Besides, in the assay on Pseudomonas aeruginosa, the MIC result is “inactive”.

Turning to `Cc1c2n(c3ccccc13)CCNC2c1ccc([N+](=O)[O-])cc1` (stereo not drawn), the MIC came to 30 µg against Escherichia coli; 30 µg with Staphylococcus aureus; 30 µg with Pseudomonas aeruginosa; 15 µg in assay [1]; 30 µg in the assay on Salmonella typhi. In the assay on RBCs, this molecule returned an Activity of 5%.

Turning to GENTAMICIN, the MIC against Escherichia coli came out at 1 µg; with Staphylococcus aureus it was 1 µg; against Pseudomonas aeruginosa, 0.5 µg; in assay [1] it was 1 µg; against Salmonella typhi (setting [2]), 1 µg.

As to `CCOP(=O)(CN1CCn2c(c(C)c3ccccc32)C1)OCC`, the MIC entry in the assay with Escherichia coli, in the assay on Staphylococcus aureus and in the assay with Salmonella typhi (setting [2]) was “inactive” throughout. The MIC (in the assay with Pseudomonas aeruginosa; in assay [1]) was 60 µg in each case.

For `Cc1c2n(c3ccccc13)CCNC2c1ccccc1` (stereo not drawn), the MIC result (in the assay on Escherichia coli; in the assay on Staphylococcus aureus; in assay [1]; in the assay with Salmonella typhi (setting [2])) was “inactive” in each case. In the assay with Pseudomonas aeruginosa, this molecule had an MIC of 3.75 µg.

With `Cc1c2n(c3ccccc13)CCNC2c1cccs1` (stereo not drawn), the MIC result (in the assay on Escherichia coli; with Pseudomonas aeruginosa; in assay [1]) was “inactive” each time. The values for the MIC against Staphylococcus aureus and against Salmonella typhi were 60 µg and 30 µg, respectively.

Consider `Cc1ccc(C2NCCn3c2c(C)c2ccccc23)cc1` (stereo not drawn), for which the MIC in the assay on Escherichia coli came to 15 µg; in the assay on Staphylococcus aureus, 30 µg; in the assay on Pseudomonas aeruginosa, 60 µg; in assay [1] it was 30 µg; against Salmonella typhi, 15 µg. Also, the Activity in the assay with RBCs is reported as 5%.

For `Cc1cn2c(cc3ccccc32)c(C)n1`, the MIC (in the assay with Escherichia coli; with Staphylococcus aureus; with Pseudomonas aeruginosa; in assay [1]; with Salmonella typhi) was 60 µg in each case.

Consider `Cc1c2n(c3ccccc13)CCNC2c1ccc(F)cc1` (stereo not drawn), for which the MIC against Escherichia coli is 15 µg; in the assay with Staphylococcus aureus, 30 µg; against Pseudomonas aeruginosa, 30 µg; in assay [1] it was 7.5 µg; against Salmonella typhi it was 30 µg. The Activity in the assay on RBCs is recorded as 5%.

On to `Cc1c2n(c3ccccc13)CCN(Cn1nnc3ccccc31)C2`, for which the MIC result (with Escherichia coli; with Pseudomonas aeruginosa; in assay [1]) was “inactive” throughout. Moreover, the MIC was 30 µg against Staphylococcus aureus and 60 µg in the assay on Salmonella typhi.

Turning to `Cc1cn2c(cc3ccccc32)c(-c2ccccc2)n1`, the MIC (in the assay on Escherichia coli; in the assay with Staphylococcus aureus; in the assay on Pseudomonas aeruginosa; in assay [1]; with Salmonella typhi) was 60 µg throughout.

On to `Cc1ccc(CN2CCn3c(c(C)c4ccccc43)C2)cc1`, for which the MIC entry in the assay on Escherichia coli was “inactive”. The MIC in the assay on Staphylococcus aureus is 15 µg; against Pseudomonas aeruginosa, 60 µg; in assay [1] it was 60 µg; against Salmonella typhi, 30 µg.

Turning to `Cc1c2n(c3ccccc13)CCN(Cc1ccccc1)C2`, the MIC result with Escherichia coli is “inactive”. In addition, the MIC with Staphylococcus aureus was determined as 15 µg; in the assay with Pseudomonas aeruginosa it was 60 µg; in assay [1] it was 60 µg; with Salmonella typhi it was 60 µg.

Regarding `Cc1c2n(c3ccccc13)CCN(C)C2`, in the assay with Escherichia coli, the MIC result was “inactive”. The MIC (against Staphylococcus aureus; with Pseudomonas aeruginosa; in assay [1]; against Salmonella typhi) was 30 µg throughout.

`Cc1c2n(c3ccccc13)CCN(CC#N)C2`: the MIC result in the assay on Escherichia coli was “inactive”. The MIC stood at 15 µg in the assay on Staphylococcus aureus, 60 µg in the assay with Pseudomonas aeruginosa, 30 µg in assay [1] and 30 µg against Salmonella typhi.

As to `Cc1c2n(c3ccccc13)CCNC2c1cccc(Cl)c1` (stereo not drawn), the MIC result in the assay with Escherichia coli, with Staphylococcus aureus and in the assay with Salmonella typhi (setting [2]) was “inactive” in each case. Also, the MIC in the assay with Pseudomonas aeruginosa worked out at 15 µg; in assay [1] it was 3.75 µg.
